Measured values published in ChEMBL document CHEMBL4330132, “5-Keto-3-cyano-2,4-diaminothiophenes as selective maternal embryonic leucine zipper kinase inhibitors” (Bioorg Med Chem Lett, 2019).

Key:
[1] = target: 5'-AMP-activated protein kinase catalytic subunit alpha-2 (Homo sapiens) (UniProt P54646); assay: Binding affinity to wild-type human partial length AMPK alpha2 (M1 to E306 residues) expressed in bacterial expression system assessed as residual binding level at 1 uM by Kinomescan method relative to control
[2] = target: LIM domain kinase 1 (Homo sapiens) (UniProt P53667); assay: Binding affinity to wild-type human full length LIMK1 (M1 to D647 residues) expressed in bacterial expression system assessed as residual binding level at 1 uM by Kinomescan method relative to control
[3] = target: Microtubule-associated serine/threonine-protein kinase 1 (Homo sapiens) (UniProt Q9Y2H9); assay: Binding affinity to wild-type human partial length MAST1 (S346 to V730 residues) expressed in mammalian expression system assessed as residual binding level at 1 uM by Kinomescan method relative to control
[4] = target: SRSF protein kinase 1 (Homo sapiens) (UniProt Q96SB4); assay: Binding affinity to wild-type human full length SRPK1 (M1 to S655 residues) expressed in bacterial expression system assessed as residual binding level at 1 uM by Kinomescan method relative to control
[5] = target: Ephrin type-A receptor 1 (Homo sapiens) (UniProt P21709); assay: Binding affinity to wild-type human partial length EPHA1 (V588 to I913 residues) expressed in bacterial expression system assessed as residual binding level at 1 uM by Kinomescan method relative to control
[6] = target: Death-associated protein kinase 1 (Homo sapiens) (UniProt P53355); assay: Binding affinity to wild-type human partial length DAPK1 (M1 to F296 residues) expressed in bacterial expression system assessed as residual binding level at 1 uM by Kinomescan method relative to control
[7] = target: Epidermal growth factor receptor (Homo sapiens) (UniProt P00533); assay: Binding affinity to wild-type human partial length EGFR (R669 to V1011 residues) expressed in bacterial expression system assessed as residual binding level at 1 uM by Kinomescan method relative to control
Sequence of Epidermal growth factor receptor (Homo sapiens) (P00533 whole entry, the tested form may be a part): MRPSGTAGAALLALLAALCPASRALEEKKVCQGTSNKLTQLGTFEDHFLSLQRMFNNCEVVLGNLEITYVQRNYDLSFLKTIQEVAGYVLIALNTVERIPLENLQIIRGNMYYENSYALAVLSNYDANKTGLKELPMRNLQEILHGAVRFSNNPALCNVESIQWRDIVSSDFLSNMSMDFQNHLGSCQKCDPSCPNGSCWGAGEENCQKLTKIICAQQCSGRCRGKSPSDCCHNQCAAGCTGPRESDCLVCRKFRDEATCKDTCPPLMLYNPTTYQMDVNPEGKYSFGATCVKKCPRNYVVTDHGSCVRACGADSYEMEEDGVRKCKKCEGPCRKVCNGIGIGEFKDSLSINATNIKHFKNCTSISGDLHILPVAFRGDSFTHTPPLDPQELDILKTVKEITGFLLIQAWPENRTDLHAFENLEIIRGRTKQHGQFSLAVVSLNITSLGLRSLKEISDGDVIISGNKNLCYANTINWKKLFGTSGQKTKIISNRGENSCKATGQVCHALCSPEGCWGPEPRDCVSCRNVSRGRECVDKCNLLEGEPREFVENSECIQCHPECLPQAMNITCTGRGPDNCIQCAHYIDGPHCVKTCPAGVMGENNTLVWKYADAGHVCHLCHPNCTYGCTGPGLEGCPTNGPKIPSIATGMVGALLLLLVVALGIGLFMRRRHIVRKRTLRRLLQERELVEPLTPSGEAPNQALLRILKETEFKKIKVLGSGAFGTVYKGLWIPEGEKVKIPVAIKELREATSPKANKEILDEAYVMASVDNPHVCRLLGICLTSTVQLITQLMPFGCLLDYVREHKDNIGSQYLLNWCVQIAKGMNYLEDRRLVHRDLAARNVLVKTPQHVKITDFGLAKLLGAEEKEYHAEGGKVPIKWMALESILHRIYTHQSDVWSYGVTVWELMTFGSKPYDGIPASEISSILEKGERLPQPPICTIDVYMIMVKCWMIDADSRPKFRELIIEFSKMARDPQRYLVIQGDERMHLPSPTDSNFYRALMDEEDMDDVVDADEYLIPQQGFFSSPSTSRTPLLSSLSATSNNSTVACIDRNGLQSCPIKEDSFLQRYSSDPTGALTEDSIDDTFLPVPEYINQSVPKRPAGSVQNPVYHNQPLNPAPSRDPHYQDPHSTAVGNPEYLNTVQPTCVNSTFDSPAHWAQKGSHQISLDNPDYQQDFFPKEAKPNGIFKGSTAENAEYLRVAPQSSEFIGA

[8] = target: Serine/threonine-protein kinase SIK1 (Homo sapiens) (UniProt P57059); assay: Binding affinity to wild-type human partial length SIK (M1 to Y304 residues) expressed in bacterial expression system assessed as residual binding level at 1 uM by Kinomescan method relative to control
[9] = target: TGF-beta receptor type-1 (Homo sapiens) (UniProt P36897); assay: Binding affinity to wild-type human partial length TGFBR1 (D179 to M503 residues) expressed in bacterial expression system assessed as residual binding level at 1 uM by Kinomescan method relative to control
Sequence of TGF-beta receptor type-1 (Homo sapiens) (P36897 whole entry, the tested form may be a part): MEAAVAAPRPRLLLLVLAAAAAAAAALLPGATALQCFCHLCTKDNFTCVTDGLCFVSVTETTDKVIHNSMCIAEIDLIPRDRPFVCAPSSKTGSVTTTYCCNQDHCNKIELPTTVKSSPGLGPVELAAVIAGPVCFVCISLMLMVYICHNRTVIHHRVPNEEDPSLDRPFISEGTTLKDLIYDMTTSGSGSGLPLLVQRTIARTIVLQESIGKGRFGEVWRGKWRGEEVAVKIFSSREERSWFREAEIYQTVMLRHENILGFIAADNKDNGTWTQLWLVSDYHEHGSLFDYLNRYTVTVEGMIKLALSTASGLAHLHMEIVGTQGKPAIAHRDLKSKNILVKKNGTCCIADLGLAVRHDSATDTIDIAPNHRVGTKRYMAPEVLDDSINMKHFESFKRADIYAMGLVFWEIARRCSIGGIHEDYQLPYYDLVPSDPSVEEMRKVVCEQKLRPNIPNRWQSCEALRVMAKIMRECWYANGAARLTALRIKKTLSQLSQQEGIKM

[10] = target: Serine/threonine-protein kinase 24 (Homo sapiens) (UniProt Q9Y6E0); assay: Binding affinity to wild-type human partial length MST3 (A30 to S311 residues) expressed in bacterial expression system assessed as residual binding level at 1 uM by Kinomescan method relative to control
[11] = target: Ephrin type-A receptor 7 (Homo sapiens) (UniProt Q15375); assay: Binding affinity to wild-type human partial length EPHA7 (Y608 to S912 residues) expressed in bacterial expression system assessed as residual binding level at 1 uM by Kinomescan method relative to control
[12] = test system: Phosphatidylinositol 4,5-bisphosphate 3-kinase catalytic subunit alpha isoform (Homo sapiens), P42336 [E545K]; assay: Binding affinity to human partial length PIK3CA E545K mutant (R108 to N1068 residues) expressed in mammalian expression system assessed as residual binding level at 1 uM by Kinomescan method relative to control
[13] = target: Serine/threonine-protein kinase 10 (Homo sapiens) (UniProt O94804); assay: Binding affinity to wild-type human partial length LOK (E16 to V314 residues) expressed in bacterial expression system assessed as residual binding level at 1 uM by Kinomescan method relative to control
[14] = target: Mitogen-activated protein kinase 1 (Homo sapiens) (UniProt P28482); assay: Binding affinity to wild-type human full length ERK2 (M1 to S360 residues) expressed in bacterial expression system assessed as residual binding level at 1 uM by Kinomescan method relative to control
[15] = target: Serine/threonine-protein kinase PAK 5 (Homo sapiens) (UniProt Q9P286); assay: Binding affinity to wild-type human partial length PAK7 (Y400 to H719 residues) expressed in bacterial expression system assessed as residual binding level at 1 uM by Kinomescan method relative to control
Sequence of Serine/threonine-protein kinase PAK 5 (Homo sapiens) (Q9P286 whole entry, looked up, the tested form may be a part): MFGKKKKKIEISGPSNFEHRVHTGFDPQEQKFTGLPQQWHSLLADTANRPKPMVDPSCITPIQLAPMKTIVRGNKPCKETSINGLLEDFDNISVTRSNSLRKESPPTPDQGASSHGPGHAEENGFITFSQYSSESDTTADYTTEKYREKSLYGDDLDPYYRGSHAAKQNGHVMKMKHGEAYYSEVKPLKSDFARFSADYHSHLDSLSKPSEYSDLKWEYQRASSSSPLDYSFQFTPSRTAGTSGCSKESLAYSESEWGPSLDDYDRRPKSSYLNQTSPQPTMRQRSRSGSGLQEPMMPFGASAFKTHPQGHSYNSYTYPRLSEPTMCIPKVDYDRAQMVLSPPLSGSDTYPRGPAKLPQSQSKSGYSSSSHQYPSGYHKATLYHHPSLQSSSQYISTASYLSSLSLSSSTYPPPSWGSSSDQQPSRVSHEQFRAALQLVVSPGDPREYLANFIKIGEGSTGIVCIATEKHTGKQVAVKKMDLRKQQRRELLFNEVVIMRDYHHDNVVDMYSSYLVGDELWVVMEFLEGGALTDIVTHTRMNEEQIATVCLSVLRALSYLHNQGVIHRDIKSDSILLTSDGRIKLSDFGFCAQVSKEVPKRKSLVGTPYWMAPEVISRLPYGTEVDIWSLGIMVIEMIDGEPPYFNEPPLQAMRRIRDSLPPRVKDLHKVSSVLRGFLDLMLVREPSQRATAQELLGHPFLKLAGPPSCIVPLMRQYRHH

[16] = target: Tyrosine-protein kinase Fer (Homo sapiens) (UniProt P16591); assay: Binding affinity to wild-type human partial length FER (S542 to T822 residues) expressed in bacterial expression system assessed as residual binding level at 1 uM by Kinomescan method relative to control
[17] = target: Inhibitor of nuclear factor kappa-B kinase subunit alpha (Homo sapiens) (UniProt O15111); assay: Binding affinity to wild-type human full length IKK-alpha (M1 to E745 residues) expressed in mammalian expression system assessed as residual binding level at 1 uM by Kinomescan method relative to control
Sequence of Inhibitor of nuclear factor kappa-B kinase subunit alpha (Homo sapiens) (O15111 whole entry, the tested form may be a part): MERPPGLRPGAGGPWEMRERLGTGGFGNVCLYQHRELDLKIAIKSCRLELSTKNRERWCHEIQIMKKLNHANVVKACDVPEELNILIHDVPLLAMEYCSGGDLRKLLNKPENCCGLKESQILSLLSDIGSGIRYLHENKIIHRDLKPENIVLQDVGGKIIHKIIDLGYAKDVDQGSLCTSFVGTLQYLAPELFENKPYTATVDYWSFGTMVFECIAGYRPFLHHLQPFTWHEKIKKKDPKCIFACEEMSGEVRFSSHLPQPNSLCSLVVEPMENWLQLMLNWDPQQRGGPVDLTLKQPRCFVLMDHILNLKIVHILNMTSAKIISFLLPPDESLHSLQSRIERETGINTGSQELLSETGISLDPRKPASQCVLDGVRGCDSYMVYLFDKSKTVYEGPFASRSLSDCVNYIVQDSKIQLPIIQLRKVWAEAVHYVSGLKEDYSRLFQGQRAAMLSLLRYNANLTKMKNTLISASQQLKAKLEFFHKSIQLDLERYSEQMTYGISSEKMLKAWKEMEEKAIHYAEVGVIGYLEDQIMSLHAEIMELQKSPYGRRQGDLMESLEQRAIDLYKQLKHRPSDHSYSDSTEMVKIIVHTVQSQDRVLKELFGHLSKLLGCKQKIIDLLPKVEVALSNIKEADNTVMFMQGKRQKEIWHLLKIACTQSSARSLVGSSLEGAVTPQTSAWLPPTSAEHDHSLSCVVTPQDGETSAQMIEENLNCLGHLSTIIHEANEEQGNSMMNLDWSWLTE

[18] = target: Misshapen-like kinase 1 (Homo sapiens) (UniProt Q8N4C8); assay: Binding affinity to wild-type human partial length MINK (M1 to K312 residues) expressed in mammalian expression system assessed as residual binding level at 1 uM by Kinomescan method relative to control
Sequence of Misshapen-like kinase 1 (Homo sapiens) (Q8N4C8 whole entry, looked up, the tested form may be a part): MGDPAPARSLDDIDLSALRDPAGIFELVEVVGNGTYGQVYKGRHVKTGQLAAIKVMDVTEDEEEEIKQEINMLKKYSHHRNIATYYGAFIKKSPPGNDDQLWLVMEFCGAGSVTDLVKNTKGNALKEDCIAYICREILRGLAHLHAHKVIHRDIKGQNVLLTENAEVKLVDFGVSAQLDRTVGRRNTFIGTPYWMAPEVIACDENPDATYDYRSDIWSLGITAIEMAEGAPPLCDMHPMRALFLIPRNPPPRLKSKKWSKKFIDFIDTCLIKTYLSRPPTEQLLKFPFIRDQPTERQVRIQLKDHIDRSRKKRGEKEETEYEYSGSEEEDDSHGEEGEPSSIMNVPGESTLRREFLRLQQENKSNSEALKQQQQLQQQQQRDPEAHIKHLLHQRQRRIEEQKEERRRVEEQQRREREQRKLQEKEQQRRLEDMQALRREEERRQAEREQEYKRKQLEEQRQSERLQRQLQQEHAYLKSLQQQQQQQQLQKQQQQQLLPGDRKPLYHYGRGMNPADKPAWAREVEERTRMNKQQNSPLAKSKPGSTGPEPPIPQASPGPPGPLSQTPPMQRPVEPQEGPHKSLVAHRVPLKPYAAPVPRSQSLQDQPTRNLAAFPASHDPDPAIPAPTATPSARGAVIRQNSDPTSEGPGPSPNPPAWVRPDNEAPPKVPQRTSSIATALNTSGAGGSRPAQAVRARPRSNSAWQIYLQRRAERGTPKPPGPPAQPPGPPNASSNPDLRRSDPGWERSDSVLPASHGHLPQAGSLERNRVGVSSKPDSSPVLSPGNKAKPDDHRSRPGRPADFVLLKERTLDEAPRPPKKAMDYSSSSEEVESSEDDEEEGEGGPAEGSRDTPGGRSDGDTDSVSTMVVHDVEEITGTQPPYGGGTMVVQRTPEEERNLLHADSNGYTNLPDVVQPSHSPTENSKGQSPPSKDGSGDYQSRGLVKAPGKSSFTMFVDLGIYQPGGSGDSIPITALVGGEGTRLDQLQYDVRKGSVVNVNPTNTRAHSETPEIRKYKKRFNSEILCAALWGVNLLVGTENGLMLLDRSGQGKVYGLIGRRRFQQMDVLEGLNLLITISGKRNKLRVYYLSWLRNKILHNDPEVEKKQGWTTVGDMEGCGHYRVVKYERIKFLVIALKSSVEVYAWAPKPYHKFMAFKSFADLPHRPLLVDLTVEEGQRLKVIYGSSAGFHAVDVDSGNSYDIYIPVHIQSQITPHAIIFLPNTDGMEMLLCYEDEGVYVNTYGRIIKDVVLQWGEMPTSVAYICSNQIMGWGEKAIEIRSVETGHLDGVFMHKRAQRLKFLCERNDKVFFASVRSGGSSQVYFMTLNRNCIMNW

[19] = target: Serine/threonine-protein kinase BRSK1 (Homo sapiens) (UniProt Q8TDC3); assay: Binding affinity to wild-type human partial length BRSK1 (M1 to E754 residues) expressed in bacterial expression system assessed as residual binding level at 1 uM by Kinomescan method relative to control
[20] = target: Protein kinase C epsilon type (Homo sapiens) (UniProt Q02156); assay: Binding affinity to wild-type human partial length PRKCE (A378 to P737 residues) expressed in mammalian expression system assessed as residual binding level at 1 uM by Kinomescan method relative to control
[21] = target: Dual specificity mitogen-activated protein kinase kinase 2 (Homo sapiens) (UniProt P36507); assay: Binding affinity to wild-type human full length MEK2 (M1 to V400 residues) expressed in mammalian expression system assessed as residual binding level at 1 uM by Kinomescan method relative to control
[22] = target: cGMP-dependent protein kinase 2 (Homo sapiens) (UniProt Q13237); assay: Binding affinity to wild-type human partial length PRKG2 (S422 to F762 residues) expressed in mammalian expression system assessed as residual binding level at 1 uM by Kinomescan method relative to control
[23] = target: Dual specificity tyrosine-phosphorylation-regulated kinase 1B (Homo sapiens) (UniProt Q9Y463); assay: Binding affinity to wild-type human full length DYRK1B (M1 to S629 residues) expressed in bacterial expression system assessed as residual binding level at 1 uM by Kinomescan method relative to control
[24] = target: Phosphatidylinositol 5-phosphate 4-kinase type-2 beta (Homo sapiens) (UniProt P78356); assay: Binding affinity to wild-type human full length PIP5K2B (M1 to T416 residues) expressed in bacterial expression system assessed as residual binding level at 1 uM by Kinomescan method relative to control
[25] = target: Serine/threonine-protein kinase NLK (Homo sapiens) (UniProt Q9UBE8); assay: Binding affinity to wild-type human full length NLK (M13 to E527 residues) expressed in bacterial expression system assessed as residual binding level at 1 uM by Kinomescan method relative to control
Sequence of Serine/threonine-protein kinase NLK (Homo sapiens) (Q9UBE8 whole entry, the tested form may be a part): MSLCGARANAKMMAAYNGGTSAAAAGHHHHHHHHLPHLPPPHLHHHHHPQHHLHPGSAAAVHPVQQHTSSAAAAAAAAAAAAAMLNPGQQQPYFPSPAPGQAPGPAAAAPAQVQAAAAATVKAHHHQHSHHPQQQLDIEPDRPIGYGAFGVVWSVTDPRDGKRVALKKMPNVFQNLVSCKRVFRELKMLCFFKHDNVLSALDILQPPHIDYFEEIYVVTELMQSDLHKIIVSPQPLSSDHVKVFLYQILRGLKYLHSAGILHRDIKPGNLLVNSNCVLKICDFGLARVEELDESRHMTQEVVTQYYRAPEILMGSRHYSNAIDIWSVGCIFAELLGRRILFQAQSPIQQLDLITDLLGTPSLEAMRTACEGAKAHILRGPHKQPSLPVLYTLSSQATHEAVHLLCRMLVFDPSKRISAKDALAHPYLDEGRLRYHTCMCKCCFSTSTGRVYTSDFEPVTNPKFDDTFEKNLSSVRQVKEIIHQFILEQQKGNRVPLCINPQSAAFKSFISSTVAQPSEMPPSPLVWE

Work on `CC(C)Nc1sc(C(=O)c2ccc(Cl)s2)c(N)c1C#N` yielded an Activity [1] of 100%, an Activity [2] of 55% and an Activity [3] of 100%. It also gave an Activity [4] of 100%, an Activity [5] of 95% and an Activity [6] of 100%. The Activity [7] was 89%, the Activity [8] was 100% and the Activity [9] was 100%. For the same compound, the Activity [10] was 99%, the Activity [11] was 82% and the Activity [12] was 80%. The Activity [13] was 82%, the Activity [14] was 100% and the Activity [15] was 81%. The Activity [16] was 81%, the Activity [17] was 100% and the Activity [18] was 55%. The Activity [19] was 92%, the Activity [20] was 85% and the Activity [21] was 100%. For the same compound, the Activity [22] was 100%, the Activity [23] was 64% and the Activity [24] was 100%. For the same compound, the Activity [25] was 79%.
